Test results as given in the NIST ThermoML archive (doi:10.1016/j.tca.2009.09.001).
Numbers after ± are expanded uncertainties.

Columns and labels:
[1] = Crystal; DTA
[2] = Molar enthalpy of transition or fusion; conditions: Crystal; DSC

| SMILES | Normal melting temperature [1] | Molar enthalpy of transition or fusion [2] |
| --- | --- | --- |
| O[C@H]1CCCC[C@@H]1O [1,2-cyclohexanediol, (1S,2S)-] | 104 ± 1 °C | 3.59 ± 0.12 kcal/mol |
| O=C(O)[C@H](O)[C@@H](O)C(=O)O [(2R,3R)-2,3-dihydroxybutanedioic acid] | 171 ± 1 °C | 5.35 ± 0.167 kcal/mol |
| O[C@@H]1CCCC[C@H]1O (relative stereo) [trans-1,2-cyclohexanediol] | 99 ± 1 °C | 8.22 ± 0.239 kcal/mol |
| O[C@@H]1CCCC[C@H]1O [(1R,2R)-1,2-cyclohexanediol] | 108 ± 1 °C | 4.3 ± 0.143 kcal/mol |
